Measurements from ChEMBL document CHEMBL1201862, “PubChem BioAssay data set” (2004).
The source made the active and inactive calls.

How the values were obtained:
Aspartyl aminopeptidase = Aspartyl aminopeptidase (Plasmodium falciparum 3D7, UniProt Q8I2J3)
Procathepsin L = Procathepsin L (Homo sapiens, UniProt P07711)
Large T antigen = Large T antigen (Simian virus 40, UniProt P03070); type: functional, Betapolyomavirus macacae;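 also: Confirmatory-stage PubChem screen for compounds that inhibit SV40 T antigen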
[1] = microbe, parasite or virus in culture; type: functional; settings: Mycobacterium tuberculosis
[2] = biological target: Mannose-6-phosphate isomerase (Homo sapiens, UniProt P34949); assay: human PMI inhibitors, high substrate, primary screen, biochemical, fluorescence intensity, high mannose 6-phosphate (AID 1220)
Mannose-6-phosphate isomerase, sequence (P34949 whole entry): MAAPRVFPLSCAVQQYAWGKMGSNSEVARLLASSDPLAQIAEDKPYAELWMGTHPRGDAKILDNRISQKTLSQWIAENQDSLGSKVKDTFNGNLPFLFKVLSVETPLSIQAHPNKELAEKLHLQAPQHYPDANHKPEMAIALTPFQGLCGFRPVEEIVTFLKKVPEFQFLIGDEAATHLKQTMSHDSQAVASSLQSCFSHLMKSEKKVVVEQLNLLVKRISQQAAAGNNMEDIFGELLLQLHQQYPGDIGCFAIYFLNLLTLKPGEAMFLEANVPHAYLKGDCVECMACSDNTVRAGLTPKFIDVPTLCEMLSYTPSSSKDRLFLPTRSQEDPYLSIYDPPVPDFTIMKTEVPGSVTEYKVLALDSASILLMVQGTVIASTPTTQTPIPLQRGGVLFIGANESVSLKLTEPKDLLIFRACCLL

[3] = biological target: DNA dC->dU-editing enzyme APOBEC-3A (Homo sapiens, UniProt P31941); assay: APOBEC3A DNA deaminase inhibitors, dose response, biochemical (AID 504722); type: functional
DNA dC->dU-editing enzyme APOBEC-3A, sequence (P31941 whole entry): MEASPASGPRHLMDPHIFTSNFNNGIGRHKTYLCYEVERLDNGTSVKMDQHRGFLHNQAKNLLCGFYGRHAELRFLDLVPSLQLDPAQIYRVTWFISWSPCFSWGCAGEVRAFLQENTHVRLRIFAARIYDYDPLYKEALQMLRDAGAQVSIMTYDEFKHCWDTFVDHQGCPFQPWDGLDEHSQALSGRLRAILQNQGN

Hexokinase = biological target: T1, Hexokinase (Trypanosoma brucei, UniProt Q38C41); assay: Confirmation assay for inhibitors of Trypanosoma brucei hexokinase 1-Analogue-first series. [Related pubchem assays (depositor defined):AID1430, AID1632, AID2516, AID2560, AID2579, AID2600, AID449725, AID492951]; type: functional
T1 sequence (Q38C41 whole entry): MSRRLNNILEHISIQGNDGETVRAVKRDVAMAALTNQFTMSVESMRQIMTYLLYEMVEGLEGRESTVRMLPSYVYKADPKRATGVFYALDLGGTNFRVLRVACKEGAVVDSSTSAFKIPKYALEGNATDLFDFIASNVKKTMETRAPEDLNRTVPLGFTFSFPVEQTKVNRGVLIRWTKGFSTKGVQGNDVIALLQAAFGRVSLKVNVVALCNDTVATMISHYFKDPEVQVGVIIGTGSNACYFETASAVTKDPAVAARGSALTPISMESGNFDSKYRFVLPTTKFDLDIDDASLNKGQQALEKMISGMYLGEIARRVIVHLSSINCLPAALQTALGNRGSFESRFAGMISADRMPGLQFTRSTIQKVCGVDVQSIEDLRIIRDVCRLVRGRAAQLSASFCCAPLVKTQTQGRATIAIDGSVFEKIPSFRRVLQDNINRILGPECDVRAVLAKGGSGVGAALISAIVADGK

[4] = biological target: Glucose-6-phosphate 1-dehydrogenase (Homo sapiens, UniProt P11413); assay: human G6PD enzyme inhibitors, dose response, selectivity assay for P. falciparum G6PD inhibitor project, biochemical, fluorescence (AID 504792); type: functional
Glucose-6-phosphate 1-dehydrogenase, sequence (P11413 whole entry): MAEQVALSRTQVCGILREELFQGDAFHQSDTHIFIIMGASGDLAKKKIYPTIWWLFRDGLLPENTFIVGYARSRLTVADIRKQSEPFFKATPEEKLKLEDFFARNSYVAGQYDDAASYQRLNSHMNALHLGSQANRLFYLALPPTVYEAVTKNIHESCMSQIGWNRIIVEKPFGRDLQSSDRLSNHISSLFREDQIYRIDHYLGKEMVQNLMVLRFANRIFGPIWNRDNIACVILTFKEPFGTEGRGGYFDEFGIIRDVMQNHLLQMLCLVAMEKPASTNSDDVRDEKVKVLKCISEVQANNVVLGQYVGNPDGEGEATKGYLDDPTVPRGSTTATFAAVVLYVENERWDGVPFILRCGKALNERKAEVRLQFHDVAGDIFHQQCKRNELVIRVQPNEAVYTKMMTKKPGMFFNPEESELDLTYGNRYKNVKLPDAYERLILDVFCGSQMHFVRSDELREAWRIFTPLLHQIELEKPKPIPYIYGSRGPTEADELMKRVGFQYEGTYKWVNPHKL

[5] = THP-1 cell cytotoxicity, dose response, cytotoxicity control for non-replicating M. tuberculosis project (AID 489025); type: functional
[6] = biological target: Eukaryotic translation initiation factor 4E (Mus musculus, UniProt P63073); assay: eIF4E–eIF4G protein interaction inhibitors, dose response, biochemical, TR-FRET (AID 855); type: functional;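 also: potency for disrupting eIF4E binding to eIF4GI seen as loss of FRET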
Eukaryotic translation initiation factor 4E, sequence (P63073 whole entry): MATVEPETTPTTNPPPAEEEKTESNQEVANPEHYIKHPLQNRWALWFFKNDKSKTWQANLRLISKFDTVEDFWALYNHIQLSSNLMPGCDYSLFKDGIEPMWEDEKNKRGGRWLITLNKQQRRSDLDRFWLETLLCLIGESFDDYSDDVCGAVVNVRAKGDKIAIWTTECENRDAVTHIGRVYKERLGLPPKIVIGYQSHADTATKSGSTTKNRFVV

[7] = biological target: DNA dC->dU-editing enzyme APOBEC-3G (Homo sapiens, UniProt Q9HC16); assay: Dose Response confirmation of small molecule APOBEC3G DNA Deaminase Inhibitors via a fluorescence-based single-stranded DNA deaminase assay. [Related pubchem assays (depositor defined):AID493012, AID493028]; type: functional
DNA dC->dU-editing enzyme APOBEC-3G, sequence (Q9HC16 whole entry): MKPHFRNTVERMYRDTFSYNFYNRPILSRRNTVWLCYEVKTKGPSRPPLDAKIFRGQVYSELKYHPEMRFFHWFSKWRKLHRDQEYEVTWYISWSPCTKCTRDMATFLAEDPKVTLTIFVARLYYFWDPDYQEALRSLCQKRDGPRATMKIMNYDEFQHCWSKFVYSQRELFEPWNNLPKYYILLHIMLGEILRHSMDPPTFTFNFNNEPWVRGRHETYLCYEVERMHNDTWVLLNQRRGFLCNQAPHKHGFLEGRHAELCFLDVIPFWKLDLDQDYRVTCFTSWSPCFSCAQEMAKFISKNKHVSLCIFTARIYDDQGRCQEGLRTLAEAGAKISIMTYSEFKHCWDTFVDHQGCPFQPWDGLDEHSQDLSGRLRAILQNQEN

[8] = Vero E6 cell cytotoxicity, dose response, cytotoxicity control for non-replicating M. tuberculosis project, secondary assay (AID 492998); type: functional, VeroE6; settings: Vero C1008
cells = type: functional
[9] = biological target: Mitochondrial peptide methionine sulfoxide reductase (Bos taurus, UniProt P54149); assay: Absorbance-based biochemical high throughput dose response assay for activators of Methionine sulfoxide reductase A (MsrA).; type: functional
Mitochondrial peptide methionine sulfoxide reductase, sequence (P54149 whole entry): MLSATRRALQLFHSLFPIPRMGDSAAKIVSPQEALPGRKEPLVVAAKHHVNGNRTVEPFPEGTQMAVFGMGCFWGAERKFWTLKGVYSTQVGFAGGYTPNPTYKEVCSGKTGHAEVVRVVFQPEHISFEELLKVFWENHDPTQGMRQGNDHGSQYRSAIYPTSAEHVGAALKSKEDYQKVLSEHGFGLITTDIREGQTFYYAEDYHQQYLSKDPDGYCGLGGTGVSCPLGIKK

[10] = P. falciparum late gametocyte killing, dose response, luminescence (AID 1117278); type: functional, cell-based;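 also: gametocytes exposed to compound for 24 hours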
[11] = Jurkat T cell cytotoxicity, dose response, cytotoxicity control for P. falciparum gametocyte viability project, luminescence (AID 1117277); type: functional, cell-based;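 also: potency reflects loss of cellular ATP meaning fewer viable cells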
[12] = biological target: Eukaryotic translation initiation factor 4H (Homo sapiens, UniProt Q15056); assay: human eIF4H binding inhibitors, primary screen, translation initiation inhibitor project, biochemical, uHTS, fluorescence polarization (AID 2012)
[13] = biological target: Polyadenylate-binding protein 1 (Homo sapiens, UniProt P11940); assay: PABP poly(A) RNA binding inhibitors, primary screen, biochemical, fluorescence polarization, uHTS (AID 2014)
Galanin receptor type 2 = Galanin receptor type 2 (Homo sapiens, UniProt O43603); assay: Dose Response cell-based high-throughput screening assay to identify antagonists of galanin receptor 2 (GALR2). [Related pubchem assays: 828, 866 ]; type: functional
Vasopressin V1a receptor = Vasopressin V1a receptor (Homo sapiens, UniProt P37288); assay: Counterscreen for Oxytocin Receptor (OXTR) agonists: Fluorescence-based cell-based high throughput dose response assay to identify agonists of the vasopressin 1 receptor (V1R). [Related pubchem assays: 2435 (Primary screen (OXTR agonists in singlicate)), 434991 (Counterscreen (V1R agonists in triplicate)), 2482 (Summary (OXTR agonists)) …; type: functional
Vasopressin V1a receptor, sequence (P37288 whole entry): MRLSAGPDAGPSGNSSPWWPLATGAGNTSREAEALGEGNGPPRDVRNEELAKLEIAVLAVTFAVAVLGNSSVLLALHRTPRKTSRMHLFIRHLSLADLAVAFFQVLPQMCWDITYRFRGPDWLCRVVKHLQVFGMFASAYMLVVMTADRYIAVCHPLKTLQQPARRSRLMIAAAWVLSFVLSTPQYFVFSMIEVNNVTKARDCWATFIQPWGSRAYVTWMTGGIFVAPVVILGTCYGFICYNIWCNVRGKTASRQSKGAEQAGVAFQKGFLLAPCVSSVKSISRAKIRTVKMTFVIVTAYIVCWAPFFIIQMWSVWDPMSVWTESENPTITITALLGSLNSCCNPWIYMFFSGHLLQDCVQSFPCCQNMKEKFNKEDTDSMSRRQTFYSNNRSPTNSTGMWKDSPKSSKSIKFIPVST

Ion channel NompC = Ion channel NompC (Danio rerio, UniProt Q7T1G6); assay: Dose response cell-based high-throughput screening assay for agonists of the transient receptor potential channel N1 (TRPN1). [Related pubchem assays (depositor defined):AID1424, AID1448]; type: functional
Oxytocin receptor = Oxytocin receptor (Homo sapiens, UniProt P30559); assay: Fluorescence-based cell-based high throughput dose response assay for agonists of the Oxytocin Receptor (OXTR). [Related pubchem assays: 2435 (Primary screen (OXTR agonists in singlicate)), 434991 (Counterscreen (V1R agonists in triplicate)), 2482 (Summary (OXTR agonists)), 434963 (Confirmation screen (OXTR agonists in triplicate))]; type: functional
Oxytocin receptor, sequence (P30559 whole entry): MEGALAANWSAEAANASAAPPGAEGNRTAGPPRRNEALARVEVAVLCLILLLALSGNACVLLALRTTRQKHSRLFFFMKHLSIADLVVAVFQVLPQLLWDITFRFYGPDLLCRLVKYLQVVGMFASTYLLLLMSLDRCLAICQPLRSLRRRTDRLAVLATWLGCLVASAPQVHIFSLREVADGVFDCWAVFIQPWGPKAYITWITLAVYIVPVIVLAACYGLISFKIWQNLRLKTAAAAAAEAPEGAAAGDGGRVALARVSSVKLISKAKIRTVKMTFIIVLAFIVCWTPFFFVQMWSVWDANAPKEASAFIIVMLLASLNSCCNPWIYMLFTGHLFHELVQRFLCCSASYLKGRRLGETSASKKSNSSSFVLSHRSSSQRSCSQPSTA

Mucolipin-3 = biological target: T2, Mucolipin-3 (Homo sapiens, UniProt Q8TDD5); assay: Fluorescence counterscreen assay for […] agonists: dose response cell-based high-throughput screening assay to identify agonists of the transient receptor potential channel ML3 (TRPML3). [Related pubchem assays: 1424, 1448 ]; type: functional
T2 sequence (Q8TDD5 whole entry): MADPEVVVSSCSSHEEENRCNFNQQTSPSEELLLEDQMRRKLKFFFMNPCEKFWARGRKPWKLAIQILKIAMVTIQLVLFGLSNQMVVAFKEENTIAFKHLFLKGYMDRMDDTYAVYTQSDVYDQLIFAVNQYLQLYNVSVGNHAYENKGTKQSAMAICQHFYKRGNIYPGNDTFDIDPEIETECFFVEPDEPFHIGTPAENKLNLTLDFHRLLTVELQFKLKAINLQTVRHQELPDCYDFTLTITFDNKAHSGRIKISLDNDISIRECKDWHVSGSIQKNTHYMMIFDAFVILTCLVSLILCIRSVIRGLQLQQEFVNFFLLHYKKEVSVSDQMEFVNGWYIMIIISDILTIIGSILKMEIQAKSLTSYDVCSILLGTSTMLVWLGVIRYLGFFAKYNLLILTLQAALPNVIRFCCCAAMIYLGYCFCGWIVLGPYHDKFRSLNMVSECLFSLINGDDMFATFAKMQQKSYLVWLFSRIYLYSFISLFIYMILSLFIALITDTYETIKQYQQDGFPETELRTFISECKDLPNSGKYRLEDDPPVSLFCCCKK

Cytochrome P450 2D6 = Cytochrome P450 2D6 (Homo sapiens, UniProt P10635); assay: qHTS Assay for Inhibitors and Substrates of Cytochrome P450 2D6. [Related pubchem assays: 410 ]; type: ADME; settings: read-out: Potency
Cytochrome P450 2D6, sequence (P10635 whole entry): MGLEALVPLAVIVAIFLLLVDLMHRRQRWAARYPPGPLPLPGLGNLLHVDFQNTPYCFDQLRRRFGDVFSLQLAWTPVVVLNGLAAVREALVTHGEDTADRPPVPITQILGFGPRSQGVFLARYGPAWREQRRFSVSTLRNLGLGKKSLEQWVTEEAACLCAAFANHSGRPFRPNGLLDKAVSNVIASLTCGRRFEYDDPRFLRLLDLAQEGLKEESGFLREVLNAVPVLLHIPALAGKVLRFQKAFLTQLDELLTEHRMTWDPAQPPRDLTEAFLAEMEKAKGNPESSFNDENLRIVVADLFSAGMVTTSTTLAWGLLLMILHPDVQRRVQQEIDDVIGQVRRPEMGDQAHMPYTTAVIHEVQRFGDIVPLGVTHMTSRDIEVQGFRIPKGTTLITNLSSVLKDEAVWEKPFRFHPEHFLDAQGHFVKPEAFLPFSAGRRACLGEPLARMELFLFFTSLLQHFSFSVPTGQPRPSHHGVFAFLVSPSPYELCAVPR

[14] = biological target: Guanyl-specific ribonuclease T1 (Aspergillus oryzae (strain ATCC 42149 / RIB 40), UniProt P00651); assay: RNase T1 inhibitors, dose response, counter-screen for TPT1 inhibitor project, biochemical, fluorescence polarization, 1536-well (AID 2167)
Guanyl-specific ribonuclease T1, sequence (P00651 whole entry): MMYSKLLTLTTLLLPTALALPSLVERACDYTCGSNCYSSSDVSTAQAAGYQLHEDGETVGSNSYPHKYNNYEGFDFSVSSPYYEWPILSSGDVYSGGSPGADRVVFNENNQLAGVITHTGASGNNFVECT

[15] = biological target: Likely tRNA 2'-phosphotransferase (Candida albicans (strain SC5314 / ATCC MYA-2876) (Yeast), UniProt Q5A7N4); assay: TPT1 tRNA phosphotransferase inhibitors, dose response, biochemical, fluorescence polarization (AID 2160)
Likely tRNA 2'-phosphotransferase, sequence (Q5A7N4 whole entry): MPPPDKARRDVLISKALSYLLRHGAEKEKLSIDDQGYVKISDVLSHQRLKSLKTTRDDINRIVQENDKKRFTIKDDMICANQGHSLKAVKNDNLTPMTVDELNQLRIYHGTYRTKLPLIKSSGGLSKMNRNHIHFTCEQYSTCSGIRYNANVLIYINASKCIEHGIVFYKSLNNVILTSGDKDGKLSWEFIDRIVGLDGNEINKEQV

[16] = inhibitors of intracellular T. cruzi replication, confirmation, NIH3T3 host cells, beta-gal luminescence (AID 2044); type: functional, cell-based;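 also: intracellular parasites grown in NIH/3T3 mouse fibroblasts as host cells; luminescent beta-galactosidase reporter signal from transgenic T. cruzi replicating inside host cells; inhibitors lower the luminescence signal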
[17] = cytotoxicity toward NIH3T3 fibroblasts, dose response, counter-screen, cell-based, ATP luminescence, mouse fibroblasts (AID 2010); type: functional;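 also: cells exposed to compound for about 90 hours before reading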
[18] = biological target: T3, Replicative DNA helicase DnaB (Mycobacterium tuberculosis, UniProt P9WMR3); assay: DnaB intein splicing inhibitors, dose response, biochemical, cell-free fluorescence (AID 449749); type: functional
T3 sequence (P9WMR3 whole entry): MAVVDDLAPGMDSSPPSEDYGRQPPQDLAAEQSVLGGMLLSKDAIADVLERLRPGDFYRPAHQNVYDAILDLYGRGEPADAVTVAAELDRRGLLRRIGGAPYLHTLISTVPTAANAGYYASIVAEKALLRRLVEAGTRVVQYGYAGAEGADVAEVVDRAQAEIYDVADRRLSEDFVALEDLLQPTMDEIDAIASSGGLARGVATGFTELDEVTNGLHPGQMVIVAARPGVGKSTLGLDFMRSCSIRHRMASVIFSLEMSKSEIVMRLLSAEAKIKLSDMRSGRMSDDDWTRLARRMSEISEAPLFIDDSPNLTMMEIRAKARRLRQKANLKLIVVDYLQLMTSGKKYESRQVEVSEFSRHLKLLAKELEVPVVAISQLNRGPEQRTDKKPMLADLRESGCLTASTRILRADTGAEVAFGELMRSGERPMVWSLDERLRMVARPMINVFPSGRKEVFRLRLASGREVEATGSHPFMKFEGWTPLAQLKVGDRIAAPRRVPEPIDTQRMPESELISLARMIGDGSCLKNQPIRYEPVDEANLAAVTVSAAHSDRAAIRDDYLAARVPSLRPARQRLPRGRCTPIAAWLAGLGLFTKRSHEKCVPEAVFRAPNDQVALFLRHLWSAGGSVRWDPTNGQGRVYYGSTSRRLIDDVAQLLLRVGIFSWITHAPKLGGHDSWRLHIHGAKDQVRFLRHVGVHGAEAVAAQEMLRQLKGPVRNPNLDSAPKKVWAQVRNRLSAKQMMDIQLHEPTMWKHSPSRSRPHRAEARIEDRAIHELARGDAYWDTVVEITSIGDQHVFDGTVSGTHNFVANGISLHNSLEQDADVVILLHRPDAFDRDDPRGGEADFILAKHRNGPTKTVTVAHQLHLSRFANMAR

Protein RecA = biological target: T4, Protein RecA (Mycobacterium tuberculosis, UniProt P9WHJ3); assay: Fluorescence Cell-Free Homogeneous Dose Retest to Identify Inhibitors of RecA-Intein Splicing Activity. [Related pubchem assays (depositor defined):AID2097, AID2223, AID489010, AID492950]; type: functional
T4 sequence (P9WHJ3 whole entry): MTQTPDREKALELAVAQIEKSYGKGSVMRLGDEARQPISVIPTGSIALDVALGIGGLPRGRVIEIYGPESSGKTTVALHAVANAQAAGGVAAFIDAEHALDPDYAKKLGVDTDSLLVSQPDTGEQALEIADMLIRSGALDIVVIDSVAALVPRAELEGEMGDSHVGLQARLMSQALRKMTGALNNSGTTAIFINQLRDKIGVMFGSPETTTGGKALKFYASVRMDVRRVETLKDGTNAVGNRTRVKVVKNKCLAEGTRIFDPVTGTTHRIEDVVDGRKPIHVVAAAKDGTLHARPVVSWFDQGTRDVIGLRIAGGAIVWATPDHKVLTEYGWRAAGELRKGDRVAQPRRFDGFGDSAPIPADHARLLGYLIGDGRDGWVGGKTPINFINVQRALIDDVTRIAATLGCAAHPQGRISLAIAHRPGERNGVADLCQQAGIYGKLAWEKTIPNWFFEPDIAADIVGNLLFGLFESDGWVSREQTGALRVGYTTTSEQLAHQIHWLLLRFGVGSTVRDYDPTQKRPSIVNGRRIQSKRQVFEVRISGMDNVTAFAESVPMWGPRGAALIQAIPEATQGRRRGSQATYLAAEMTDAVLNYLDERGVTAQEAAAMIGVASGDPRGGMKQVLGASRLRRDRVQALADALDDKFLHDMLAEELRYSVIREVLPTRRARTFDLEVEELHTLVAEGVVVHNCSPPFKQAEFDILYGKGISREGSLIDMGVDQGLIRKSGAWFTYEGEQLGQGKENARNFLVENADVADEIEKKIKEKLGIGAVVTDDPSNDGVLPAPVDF

[19] = Artemis endonuclease inhibitor potency, dose response, biochemical, fluorescence intensity (AID 720701); type: functional;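 also: Artemis endonuclease enzyme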

Aspartyl aminopeptidase, sequence (Q8I2J3 whole entry): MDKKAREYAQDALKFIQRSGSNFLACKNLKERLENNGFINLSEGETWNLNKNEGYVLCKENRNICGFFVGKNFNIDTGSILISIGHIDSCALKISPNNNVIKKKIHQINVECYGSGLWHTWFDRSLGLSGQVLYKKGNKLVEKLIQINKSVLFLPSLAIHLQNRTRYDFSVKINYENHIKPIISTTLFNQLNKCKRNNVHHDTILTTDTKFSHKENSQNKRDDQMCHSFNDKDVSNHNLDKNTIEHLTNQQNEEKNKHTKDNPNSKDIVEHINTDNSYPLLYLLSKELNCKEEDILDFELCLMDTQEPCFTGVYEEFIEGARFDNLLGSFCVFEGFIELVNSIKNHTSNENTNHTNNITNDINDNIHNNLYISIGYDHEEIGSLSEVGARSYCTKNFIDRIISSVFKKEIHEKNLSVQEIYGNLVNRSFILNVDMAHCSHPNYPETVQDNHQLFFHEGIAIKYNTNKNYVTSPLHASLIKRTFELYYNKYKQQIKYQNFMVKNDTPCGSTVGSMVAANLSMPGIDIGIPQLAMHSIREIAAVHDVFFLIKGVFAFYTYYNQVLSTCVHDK
Procathepsin L, sequence (P07711 whole entry): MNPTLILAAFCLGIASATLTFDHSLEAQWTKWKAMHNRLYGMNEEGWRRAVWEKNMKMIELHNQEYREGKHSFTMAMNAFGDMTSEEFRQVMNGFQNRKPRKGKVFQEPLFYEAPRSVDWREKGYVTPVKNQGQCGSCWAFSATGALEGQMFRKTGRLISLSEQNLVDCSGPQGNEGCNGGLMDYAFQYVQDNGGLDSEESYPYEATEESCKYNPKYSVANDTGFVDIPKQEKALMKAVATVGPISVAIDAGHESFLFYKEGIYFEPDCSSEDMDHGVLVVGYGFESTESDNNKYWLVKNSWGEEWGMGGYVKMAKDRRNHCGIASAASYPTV

Cc1ccccc1-n1sc2cc(F)ccc2c1=O
IC50 (Aspartyl aminopeptidase): 648 nM (active) | IC50 (Procathepsin L): > 59.6 µM (not active) | IC50 (Large T antigen): 13.1 µM (active) | CC50 [1]: 13 µM (active) | IC50 [2]: 8.95 µM (active) | IC50 [3]: > 100 µM (inactive) | IC50 (Hexokinase): 4.8 µM (active) | IC50 [4]: 13.9 µM (active) | CC50 [5]: 19 µM (active) | IC50 [6]: 36.7 µM (inactive) | IC50 [7]: 9.02 µM (active) | CC50 [8]: 12.1 µM (active) | IC50 (cells): 23.7 µM (active) | EC50 [9]: > 104 µM (inactive) | IC50 [10]: 39.6 µM (inactive) | IC50 [11]: 6.73 µM (active)

O=C1C=C(NCc2ccc(Cl)cc2)CC(c2ccco2)C1 (stereo unspecified)
IC50 [12]: 41.3 µM (active) | IC50 [13]: 64.6 µM (active)

C/N=c1\[nH]c2cc([N+](=O)[O-])c([N+](=O)[O-])cc2[nH]\c1=N\C
IC50 (Galanin receptor type 2): 1.29 µM (active) | EC50 (Vasopressin V1a receptor): > 29.9 µM (not active) | EC50 (Ion channel NompC): > 29.9 µM (inactive) | EC50 (Oxytocin receptor): > 29.9 µM (not active) | EC50 (Mucolipin-3): > 29.9 µM (not active)

COC(=O)[C@@H]1C[C@H]1[C@@H](NC(=O)OCc1ccccc1)c1ccccc1
AC50 (Cytochrome P450 2D6): 12.6 µM (inconclusive)

Cc1ccc2nc(N/N=C\c3ccc([N+](=O)[O-])o3)nc(-c3ccccc3)c2c1
IC50 [14]: > 55.7 µM (not active) | IC50 [15]: > 55.7 µM (not active) | EC50 [16]: 176 nM (active) | EC50 [17]: 9.01 µM (active) | AC50 [18]: > 380 µM (inactive) | EC50 (Protein RecA): 208 µM (inconclusive) | IC50 [19]: > 20 µM (inactive)
